One assay deals with EA.hy926. In words: MTT anti-proliferative assay against human vascular endothelial cell. The format is cell-based. The following applies: EA.hy 926, 48 h treatment. Here is the method: Growth inhibitory activities were evaluated against human vascular endothelial cell (EA.hy926)[25]. Thirteen selected title compounds were tested using MTT assay to assess cell proliferation. Exponentially growing cells were harvested and plated in 96-well plates at a concentration of […] cells/well, and then incubated for 24 h at 37 °C. The cells were treated with title compounds respectively at various concentrations for 48 h. Then, […] fresh MTT (5 mg/mL) was added to each well and incubated for 4 h at 37 °C. Supernatant was discarded, and […] DMSO was added to each well. Absorbance values were determined by a microplate reader (Bio-Rad Instruments) at 490 nm. The IC50 values were calculated according to inhibition ratios.
Background: Tetrazolium assays rely on reduction of a dye to a coloured formazan, in cell work by metabolically active cells.

Another assay addresses B-Raf (Homo sapiens, UniProt P15056). In words: Kinase selectivity assay, B-Raf. The class given is biochemical. The following applies: Table 3 selectivity profile.
Another assay has as its target VEGFR-2 (Homo sapiens, UniProt P35968). Description: ADP-Glo kinase inhibition assay, VEGFR-2. The format is biochemical. The following applies: Table 1, ATP 50 μM, read-out: VEGFR-2 inhibitory activity (IC50). The protocol: (§1) Tyrosine kinase inhibition were tested by luminescent ADP-Glo^TM assay.
(§2) The kinase assay was performed in duplicate in a reaction mixture of final volume of 10 μL. […] The assay plate was incubated at 30 °C for 1 h. After the plate was cooled at room temperature for 5 min, 5 μL of ADP-Glo reagent was added into each well to stop the reaction and consume the remaining […] within 40 min. At the end, 10 μL of kinase detection reagent was added into the well and incubated for 30 min to produce a luminescence signal. […] The assay plate was incubated at 30 °C for 4 h. After the plate was cooled at room temperature for 5 min, 5 μL of ADP-Glo reagent was added into each well to stop the reaction and consume the remaining […] within 1 h. At the end, 10 μL of kinase detection reagent was added into the well and incubated for 30 min to produce a luminescence signal. The luminescence was read by VICTOR-X multi- label plate reader. The signal was correlated with the amount of […] present in the reaction and was […] with the kinase activity.

The next assay has as its target TIE-2 (Homo sapiens, UniProt Q02763). In words: ADP-Glo kinase inhibition assay, TIE-2. The following applies: Table 1, ATP 50 μM, read-out: Tie-2 inhibitory activity (IC50). The format is biochemical. Here is the method: as §1, §2
In general terms: ADP-Glo first removes unused ATP, then detects ADP through luciferase.

The subject of assay [1] is mouse lung tissue blood vessels. Description: Tissue model for angiogenesis (TMA), lung tissue vessel sprouting. The following applies: 15.6 μM; observed on the 5th day. Here is the method:
A novel tissue model for angiogenesis that imitated new blood vessels formation in vivo had been established in the previous study.
Figure 8 Anti-angiogenesis potency of compound CDAU-2 in tissue model for angiogenesis (TMA). (A–F) the representative images of lung tissue blood vessels in the TMA on the 5th day; (A) the untreated control group; (B–F) lung tissue vessels in the CDAU-2 treated group; (B) 1.94 μM; (C) 3.87 μM; (D) 7.75 μM; (E) 15.6 μM; (F) 62.5 μM.
In brief, the mouse lung tissue was separated and cut into pieces (0.5–1.0 mm^3)[27]. Then pieces of lung tissue were placed onto 48-well plate coated with polymerized fibrinogen with thrombin. After consolidation, each group was incubated with 200 μL/well 1640 medium containing different concentrations of CDAU-2. Control groups were incubated with 2.5% DMSO or 1640 medium alone.

The target of the next assay is Src (Homo sapiens, UniProt P12931). In words: Kinase selectivity assay, Src. The class given is biochemical. The following applies: Table 3 selectivity profile.
Another assay deals with T1, EphB4 (Homo sapiens, UniProt P54760).
T1 sequence (P54760 16-987): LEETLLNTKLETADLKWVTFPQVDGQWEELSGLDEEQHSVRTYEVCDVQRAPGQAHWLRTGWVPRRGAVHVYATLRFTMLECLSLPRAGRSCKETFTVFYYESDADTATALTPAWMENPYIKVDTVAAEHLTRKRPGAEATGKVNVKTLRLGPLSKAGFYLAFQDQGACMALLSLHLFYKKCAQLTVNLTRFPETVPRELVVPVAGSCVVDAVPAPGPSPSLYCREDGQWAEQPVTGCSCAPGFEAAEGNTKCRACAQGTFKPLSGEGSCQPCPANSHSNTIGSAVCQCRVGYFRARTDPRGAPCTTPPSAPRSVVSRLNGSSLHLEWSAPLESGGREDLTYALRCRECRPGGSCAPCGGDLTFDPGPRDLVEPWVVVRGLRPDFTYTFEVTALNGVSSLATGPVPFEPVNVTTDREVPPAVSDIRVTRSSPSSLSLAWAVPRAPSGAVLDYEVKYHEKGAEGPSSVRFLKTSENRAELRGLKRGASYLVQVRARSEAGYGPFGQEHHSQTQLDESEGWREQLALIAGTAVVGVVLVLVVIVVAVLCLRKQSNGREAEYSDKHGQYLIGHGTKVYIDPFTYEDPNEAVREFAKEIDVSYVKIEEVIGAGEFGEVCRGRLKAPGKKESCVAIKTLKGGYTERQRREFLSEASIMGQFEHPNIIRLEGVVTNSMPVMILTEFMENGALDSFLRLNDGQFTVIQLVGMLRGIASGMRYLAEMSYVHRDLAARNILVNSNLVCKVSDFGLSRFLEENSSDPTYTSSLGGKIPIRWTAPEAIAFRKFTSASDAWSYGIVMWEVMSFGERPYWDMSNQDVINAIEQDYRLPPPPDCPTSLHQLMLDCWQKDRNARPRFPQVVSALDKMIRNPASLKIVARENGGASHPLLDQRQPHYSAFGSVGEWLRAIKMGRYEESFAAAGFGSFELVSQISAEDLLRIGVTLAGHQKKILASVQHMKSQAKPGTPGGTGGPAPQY
Description: ADP-Glo kinase inhibition assay, EphB4. The format is biochemical. The following applies: Table 1, ATP 50 μM, read-out: EphB4 inhibitory activity (IC50). Here is the method:
as §1, §2

A further assay has as its target FGFR-1 (Homo sapiens, UniProt P11362). In words: Kinase selectivity assay, FGFR-1. The class given is biochemical. The settings on record: Table 3 selectivity profile.
The target in a further assay is EGFR (Homo sapiens, UniProt P00533). Description: Kinase selectivity assay, EGFR. The format is biochemical. The settings on record: Table 3 selectivity profile.

These results are taken from article PMC5362808, “Discovery of multi-target receptor tyrosine kinase inhibitors as novel anti-angiogenesis agents” (Scientific Reports, 2017).

Where only a bound is given, the exact number is not on record here.

VEGFR-2, sequence (P35968 20-1356): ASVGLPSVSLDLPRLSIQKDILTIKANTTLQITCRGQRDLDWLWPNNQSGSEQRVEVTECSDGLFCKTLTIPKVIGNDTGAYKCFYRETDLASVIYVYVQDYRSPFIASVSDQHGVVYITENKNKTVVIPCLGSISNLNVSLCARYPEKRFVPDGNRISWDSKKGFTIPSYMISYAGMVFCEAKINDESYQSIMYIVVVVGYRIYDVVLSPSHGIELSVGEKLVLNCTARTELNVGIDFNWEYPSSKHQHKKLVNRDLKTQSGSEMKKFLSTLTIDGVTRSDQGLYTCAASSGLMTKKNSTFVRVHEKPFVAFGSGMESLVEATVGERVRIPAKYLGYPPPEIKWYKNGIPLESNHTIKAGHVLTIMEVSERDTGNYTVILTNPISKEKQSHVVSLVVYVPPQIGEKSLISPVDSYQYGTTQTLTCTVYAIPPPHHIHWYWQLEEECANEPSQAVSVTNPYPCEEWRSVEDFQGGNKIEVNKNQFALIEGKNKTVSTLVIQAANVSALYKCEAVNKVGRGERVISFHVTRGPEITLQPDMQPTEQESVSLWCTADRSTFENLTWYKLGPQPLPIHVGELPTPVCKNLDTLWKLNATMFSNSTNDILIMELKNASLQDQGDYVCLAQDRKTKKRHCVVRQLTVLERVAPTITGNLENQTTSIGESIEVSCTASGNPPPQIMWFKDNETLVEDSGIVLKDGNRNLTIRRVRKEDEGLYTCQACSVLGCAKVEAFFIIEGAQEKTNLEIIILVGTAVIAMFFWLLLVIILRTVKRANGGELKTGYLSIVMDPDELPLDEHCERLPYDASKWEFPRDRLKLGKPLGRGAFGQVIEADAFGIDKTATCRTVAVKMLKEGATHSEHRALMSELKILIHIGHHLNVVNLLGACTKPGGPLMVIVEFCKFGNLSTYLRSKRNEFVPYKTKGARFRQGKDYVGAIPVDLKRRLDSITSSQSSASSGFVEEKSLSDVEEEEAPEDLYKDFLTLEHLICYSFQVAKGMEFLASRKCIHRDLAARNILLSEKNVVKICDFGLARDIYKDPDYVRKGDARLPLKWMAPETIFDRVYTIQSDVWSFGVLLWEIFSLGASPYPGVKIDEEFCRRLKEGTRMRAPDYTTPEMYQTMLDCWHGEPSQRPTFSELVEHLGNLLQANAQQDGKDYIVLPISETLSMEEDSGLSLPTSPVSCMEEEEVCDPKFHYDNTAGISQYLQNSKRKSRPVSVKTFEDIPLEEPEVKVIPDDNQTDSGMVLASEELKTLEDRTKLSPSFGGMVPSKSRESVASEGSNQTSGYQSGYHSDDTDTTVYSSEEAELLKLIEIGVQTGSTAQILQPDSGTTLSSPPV
TIE-2, sequence (Q02763 23-1124): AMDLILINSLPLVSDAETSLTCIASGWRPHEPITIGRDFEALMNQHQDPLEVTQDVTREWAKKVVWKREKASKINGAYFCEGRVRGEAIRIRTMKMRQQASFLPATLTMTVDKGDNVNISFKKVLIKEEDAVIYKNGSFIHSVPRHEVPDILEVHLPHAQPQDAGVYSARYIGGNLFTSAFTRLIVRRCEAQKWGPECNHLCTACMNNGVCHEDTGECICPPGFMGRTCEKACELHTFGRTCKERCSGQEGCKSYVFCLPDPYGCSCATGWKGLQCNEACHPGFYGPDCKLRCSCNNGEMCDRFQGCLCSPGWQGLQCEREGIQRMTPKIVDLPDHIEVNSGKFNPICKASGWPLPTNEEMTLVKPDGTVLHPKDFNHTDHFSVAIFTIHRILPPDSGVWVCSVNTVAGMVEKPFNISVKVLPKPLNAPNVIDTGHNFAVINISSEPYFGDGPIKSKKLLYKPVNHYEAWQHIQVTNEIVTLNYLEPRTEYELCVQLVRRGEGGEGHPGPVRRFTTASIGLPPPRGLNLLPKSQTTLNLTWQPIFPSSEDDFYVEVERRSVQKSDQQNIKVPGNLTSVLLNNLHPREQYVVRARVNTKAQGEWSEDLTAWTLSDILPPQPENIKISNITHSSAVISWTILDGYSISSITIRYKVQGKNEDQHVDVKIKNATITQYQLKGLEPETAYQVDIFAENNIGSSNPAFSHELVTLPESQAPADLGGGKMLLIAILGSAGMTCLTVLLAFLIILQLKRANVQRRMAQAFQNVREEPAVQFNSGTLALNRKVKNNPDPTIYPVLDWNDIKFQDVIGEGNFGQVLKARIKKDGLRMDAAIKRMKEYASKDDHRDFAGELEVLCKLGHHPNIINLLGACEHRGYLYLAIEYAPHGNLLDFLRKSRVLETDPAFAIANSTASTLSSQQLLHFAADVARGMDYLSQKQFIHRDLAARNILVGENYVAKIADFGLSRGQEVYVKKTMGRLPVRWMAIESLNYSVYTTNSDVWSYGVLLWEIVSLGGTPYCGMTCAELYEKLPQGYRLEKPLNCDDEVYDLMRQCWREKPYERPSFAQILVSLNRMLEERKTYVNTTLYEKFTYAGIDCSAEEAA
B-Raf, sequence (P15056 whole entry, species assumed): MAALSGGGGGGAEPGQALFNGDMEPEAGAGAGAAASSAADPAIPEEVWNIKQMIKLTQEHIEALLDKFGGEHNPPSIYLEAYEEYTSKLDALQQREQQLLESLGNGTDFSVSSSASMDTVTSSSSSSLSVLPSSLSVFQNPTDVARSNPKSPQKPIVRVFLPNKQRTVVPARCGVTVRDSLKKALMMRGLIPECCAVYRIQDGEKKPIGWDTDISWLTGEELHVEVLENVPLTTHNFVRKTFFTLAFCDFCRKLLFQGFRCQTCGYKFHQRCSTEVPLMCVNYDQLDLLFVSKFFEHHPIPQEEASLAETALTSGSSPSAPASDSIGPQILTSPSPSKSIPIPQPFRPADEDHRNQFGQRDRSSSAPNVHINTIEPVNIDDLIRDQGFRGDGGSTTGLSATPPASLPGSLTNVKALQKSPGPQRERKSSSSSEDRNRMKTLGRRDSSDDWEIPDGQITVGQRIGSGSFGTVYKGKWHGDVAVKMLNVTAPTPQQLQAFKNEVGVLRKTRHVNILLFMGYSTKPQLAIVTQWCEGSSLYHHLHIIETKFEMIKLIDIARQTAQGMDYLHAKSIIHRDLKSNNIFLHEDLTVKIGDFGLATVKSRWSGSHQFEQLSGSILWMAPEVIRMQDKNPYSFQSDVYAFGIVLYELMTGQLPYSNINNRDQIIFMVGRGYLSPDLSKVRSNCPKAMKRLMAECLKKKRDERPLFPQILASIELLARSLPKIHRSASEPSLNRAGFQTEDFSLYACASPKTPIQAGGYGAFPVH
Src, sequence (P12931 whole entry, species assumed): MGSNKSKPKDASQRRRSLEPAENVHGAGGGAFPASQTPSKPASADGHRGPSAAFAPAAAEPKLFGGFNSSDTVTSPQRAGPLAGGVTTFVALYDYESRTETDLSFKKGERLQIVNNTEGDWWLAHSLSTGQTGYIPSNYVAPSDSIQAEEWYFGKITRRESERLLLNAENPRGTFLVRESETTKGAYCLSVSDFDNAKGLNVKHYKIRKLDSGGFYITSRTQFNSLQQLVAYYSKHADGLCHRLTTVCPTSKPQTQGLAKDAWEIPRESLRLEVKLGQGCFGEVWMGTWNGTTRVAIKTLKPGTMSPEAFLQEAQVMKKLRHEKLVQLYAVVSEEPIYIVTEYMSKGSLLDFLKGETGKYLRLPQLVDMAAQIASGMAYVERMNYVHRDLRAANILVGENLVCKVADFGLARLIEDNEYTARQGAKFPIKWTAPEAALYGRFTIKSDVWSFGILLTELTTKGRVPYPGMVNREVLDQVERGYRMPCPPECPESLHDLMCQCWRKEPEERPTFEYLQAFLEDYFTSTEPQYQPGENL
EGFR, sequence (P00533 25-1210, species assumed): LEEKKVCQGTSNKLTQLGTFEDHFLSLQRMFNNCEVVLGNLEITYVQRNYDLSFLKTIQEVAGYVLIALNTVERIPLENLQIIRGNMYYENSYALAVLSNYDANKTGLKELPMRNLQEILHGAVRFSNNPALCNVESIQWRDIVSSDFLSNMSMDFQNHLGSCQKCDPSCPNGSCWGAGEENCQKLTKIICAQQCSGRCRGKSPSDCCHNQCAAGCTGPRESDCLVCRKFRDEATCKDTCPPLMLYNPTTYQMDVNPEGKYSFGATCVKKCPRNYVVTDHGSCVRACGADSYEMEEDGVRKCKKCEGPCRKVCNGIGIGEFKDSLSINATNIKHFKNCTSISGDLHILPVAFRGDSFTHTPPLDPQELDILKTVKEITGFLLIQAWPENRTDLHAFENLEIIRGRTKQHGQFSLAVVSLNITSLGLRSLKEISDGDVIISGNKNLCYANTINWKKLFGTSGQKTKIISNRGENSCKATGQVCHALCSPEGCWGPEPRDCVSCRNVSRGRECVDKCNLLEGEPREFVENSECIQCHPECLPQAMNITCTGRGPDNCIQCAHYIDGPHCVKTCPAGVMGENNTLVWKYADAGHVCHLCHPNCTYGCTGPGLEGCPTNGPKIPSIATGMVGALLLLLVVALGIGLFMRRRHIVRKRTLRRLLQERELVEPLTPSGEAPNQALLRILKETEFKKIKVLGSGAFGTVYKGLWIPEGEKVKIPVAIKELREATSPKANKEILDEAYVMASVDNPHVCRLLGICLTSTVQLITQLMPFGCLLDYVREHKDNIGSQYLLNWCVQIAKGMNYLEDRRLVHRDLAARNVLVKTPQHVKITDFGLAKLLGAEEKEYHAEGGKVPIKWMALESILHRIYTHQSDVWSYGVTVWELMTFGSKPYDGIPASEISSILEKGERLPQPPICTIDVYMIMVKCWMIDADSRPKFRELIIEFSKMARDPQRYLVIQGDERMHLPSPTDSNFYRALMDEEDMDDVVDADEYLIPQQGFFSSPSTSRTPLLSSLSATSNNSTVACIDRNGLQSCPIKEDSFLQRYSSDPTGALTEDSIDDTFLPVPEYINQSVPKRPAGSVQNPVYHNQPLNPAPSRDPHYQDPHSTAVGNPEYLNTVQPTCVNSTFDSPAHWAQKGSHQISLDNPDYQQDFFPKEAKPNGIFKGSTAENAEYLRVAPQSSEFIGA

Regarding `O=C(Nc1ccc(-c2ccc(NC(=O)C3CC3)nc2)cc1)Nc1ccc(Cl)c(C(F)(F)F)c1` [CDAU-2], the concentration for half-maximal inhibition (IC50) is 14500 nM with EA.hy926; 34.6 nM against B-Raf; 1.01 nM at VEGFR-2; 8.32 nM on TIE-2; greater than 500 nM on Src; 5.11 nM at EphB4. Moreover, the IC50 was determined as 317 nM at FGFR-1 and 191 nM against EGFR. In [1], the “Anti-angiogenesis potency: inhibition of vessel outgrowth from lung tissue” value is “inhibited vessels outgrew from the periphery of the lung tissues evidently”.

One may read the IC50 as the midpoint of a concentration-inhibition curve.
